Calls of active or inactive are those of the source. The rule behind the calls is not given here.
System: CCRIS mutagenicity, Ames/micronucleus/aberration tests
Assay: CCRIS mutagenicity studies
[1] = Test System: AMES SALMONELLA TYPHIMURIUM, Strain/Indicator: TA98, Metabolic Activation: NONE, Method: STANDARD PLATE
[2] = Test System: AMES SALMONELLA TYPHIMURIUM, Strain/Indicator: TA98, Metabolic Activation: RAT, LIVER, S-9, AROCLOR 1254 (30%), Method: PREINCUBATION
[3] = Test System: AMES SALMONELLA TYPHIMURIUM, Strain/Indicator: TA100, Metabolic Activation: HAMSTER, LIVER, S-9, AROCLOR 1254 (30%), Method: PREINCUBATION
[4] = Test System: AMES SALMONELLA TYPHIMURIUM, Strain/Indicator: TA100, Metabolic Activation: NONE, Method: PREINCUBATION
[5] = Test System: AMES SALMONELLA TYPHIMURIUM, Strain/Indicator: TA100, Metabolic Activation: NONE, Method: STANDARD PLATE
[6] = Test System: AMES SALMONELLA TYPHIMURIUM, Strain/Indicator: TA100, Metabolic Activation: RAT, LIVER, S-9, AROCLOR 1254 (30%), Method: PREINCUBATION
[7] = Test System: AMES SALMONELLA TYPHIMURIUM, Strain/Indicator: TA1537, Metabolic Activation: NONE, Method: STANDARD PLATE
[8] = Test System: AMES SALMONELLA TYPHIMURIUM, Strain/Indicator: TA98, Metabolic Activation: HAMSTER, LIVER, S-9, AROCLOR 1254 (10%), Method: PREINCUBATION
[9] = Test System: AMES SALMONELLA TYPHIMURIUM, Strain/Indicator: TA98, Metabolic Activation: NONE, Method: PREINCUBATION
[10] = Test System: AMES SALMONELLA TYPHIMURIUM, Strain/Indicator: TA98, Metabolic Activation: RAT, LIVER, S-9, AROCLOR 1254 (10%), Method: PREINCUBATION
[11] = Test System: AMES SALMONELLA TYPHIMURIUM, Strain/Indicator: TA100, Metabolic Activation: HAMSTER, LIVER, S-9, AROCLOR 1254 (10%), Method: PREINCUBATION
[12] = Test System: AMES SALMONELLA TYPHIMURIUM, Strain/Indicator: TA100, Metabolic Activation: RAT, LIVER, S-9, AROCLOR 1254 (10%), Method: PREINCUBATION
[13] = Test System: AMES SALMONELLA TYPHIMURIUM, Strain/Indicator: TA1535, Metabolic Activation: HAMSTER, LIVER, S-9, AROCLOR 1254 (10%), Method: PREINCUBATION
[14] = Test System: AMES SALMONELLA TYPHIMURIUM, Strain/Indicator: TA1535, Metabolic Activation: NONE, Method: PREINCUBATION
[15] = Test System: AMES SALMONELLA TYPHIMURIUM, Strain/Indicator: TA1535, Metabolic Activation: RAT, LIVER, S-9, AROCLOR 1254 (10%), Method: PREINCUBATION
[16] = Test System: AMES SALMONELLA TYPHIMURIUM, Strain/Indicator: TA1537, Metabolic Activation: HAMSTER, LIVER, S-9, AROCLOR 1254 (10%), Method: PREINCUBATION
[17] = Test System: AMES SALMONELLA TYPHIMURIUM, Strain/Indicator: TA1537, Metabolic Activation: NONE, Method: PREINCUBATION
[18] = Test System: AMES SALMONELLA TYPHIMURIUM, Strain/Indicator: TA1537, Metabolic Activation: RAT, LIVER, S-9, AROCLOR 1254 (10%), Method: PREINCUBATION

Measured: mutagenic call

N[C@@H](Cc1ccc(N(CCCl)CCCl)cc1)C(=O)O
inactive: [1] inactive; negative | [2] inactive; negative | [7] inactive; negative | Test System: E. COLI, Strain/Indicator: WP2 (HCR), Metabolic Activation: S-9, Method: STANDARD PLATE inactive; negative
active: End Point: In vivo chromosomal aberrations, Test System: Bone marrow cells, Species: Mouse, Strain/Sex: C57B1/6 / Female (base p53+/-), Route: Oral (gavage) active; positive | End Point: In vivo chromosomal aberrations, Test System: Splenocytes, Species: Mouse, Strain/Sex: C57B1/6 / Female (base p 53+/-), Route: Oral (gavage) active; positive | [3] active; positive | [4] active; positive | [5] active; positive | [6] active; positive | Test System: AMES SALMONELLA TYPHIMURIUM, Strain/Indicator: TA100, Metabolic Activation: RAT, LIVER, S-9, AROCLOR 1254, Method: STANDARD PLATE active; positive | Test System: AMES SALMONELLA TYPHIMURIUM, Strain/Indicator: TA1535, Metabolic Activation: NONE, Method: STANDARD PLATE active; positive | Test System: AMES SALMONELLA TYPHIMURIUM, Strain/Indicator: TA1535, Metabolic Activation: RAT, LIVER, S-9, AROCLOR 1254, Method: STANDARD PLATE active; positive

COP(=S)(OC)SCn1nnc2ccccc2c1=O
inactive: End Point: In vitro Chromosomal aberrations, Test System: Human lymphocytes, Metabolic Activation: None inactive; negative; lymphocytes from 1 male and 1 female; azinphos-methyl purity 92.9% | [8] inactive; negative | [9] inactive; negative | [11] inactive; negative | [4] inactive; negative | [12] inactive; negative | [13] inactive; negative | [14] inactive; negative | [15] inactive; negative | [16] inactive; negative | [17] inactive; negative | [18] inactive; negative
active: End Point: In vitro Chromosomal aberrations, Test System: Human lymphocytes, Metabolic Activation: Rat, liver, S-9 active; positive (structural and ploidy); lymphocytes from 1 male and 1 female; azinphos | [10] active; positive

Nc1ccn([C@@H]2O[C@H](CO)[C@@H](O)C2(F)F)c(=O)n1
active: End Point: CHROMOSOMAL ABERRATIONS, Test System: BONE MARROW, Species: MOUSE, Strain/Sex: SWISS/MALE, FEMALE, Route: INTRAPERITONEAL active; positive (structural changes) | End Point: IN VITRO CHROMOSOMAL ABERRATIONS, Test System: HUMAN PERIPHERAL LYMPHOCYTES, Metabolic Activation: NONE active; positive; (structural changes: breaks, fragments) | End Point: IN VITRO CHROMOSOMAL ABERRATIONS, Test System: HUMAN PERIPHERAL LYMPHOCYTES, Strain/Sex: MALE, FEMALE, Metabolic Activation: NONE active; positive (structural changes) | End Point: MICRONUCLEUS, Test System: BONE MARROW, Species: MOUSE, Strain/Sex: SWISS/MALE, FEMALE, Route: INTRAPERITONEAL active; positive

Oc1cccc2c1ccc1[nH]c3ccc4ccccc4c3c12
inactive: Test System: AMES SALMONELLA TYPHIMURIUM, Strain/Indicator: TM677, Metabolic Activation: NONE, Method: PREINCUBATION inactive; negative
active: [1] active; positive | Test System: AMES SALMONELLA TYPHIMURIUM, Strain/Indicator: TA98, Metabolic Activation: RAT, LIVER, S-9, 3-METHYLCHOLANTHRENE, Method: STANDARD PLATE active; positive | [5] active; positive | Test System: AMES SALMONELLA TYPHIMURIUM, Strain/Indicator: TA100, Metabolic Activation: RAT, LIVER, S-9, 3-METHYLCHOLANTHRENE, Method: STANDARD PLATE active; positive | Test System: AMES SALMONELLA TYPHIMURIUM, Strain/Indicator: TM677, Metabolic Activation: RAT, LIVER, S-9, 3-METHYLCHOLANTHRENE (10%), Method: PREINCUBATION active; positive | Test System: AMES SALMONELLA TYPHIMURIUM, Strain/Indicator: TM677, Metabolic Activation: RAT, LIVER, S-9, AROCLOR 1254 (10%), Method: PREINCUBATION active; positive

CN(C)CCNC(=O)c1cccc2c(N)c3ccccc3nc12
active: [7] active; positive

COc1ccc2c(c1)c(CC(=O)OC(C)c1ccccc1)c(C)n2C(=O)c1ccc(Cl)cc1 (configuration not stated)
active: End Point: IN VITRO MICRONUCLEUS, Test System: CHL/IU CELLS, Metabolic Activation: NONE active; positive

Cc1c([N+](=O)[O-])cc(C)c2c1c1ccccc1n2C
active: [1] active; positive | Test System: AMES SALMONELLA TYPHIMURIUM, Strain/Indicator: TA98, Metabolic Activation: RAT LIVER S-9, AROCLOR 1254, Method: STANDARD PLATE active; positive | [5] active; positive | Test System: AMES SALMONELLA TYPHIMURIUM, Strain/Indicator: TA100, Metabolic Activation: RAT LIVER S-9, AROCLOR 1254, Method: STANDARD PLATE active; positive

OCC(CO)(CBr)CBr
active: End Point: IN VITRO CHROMOSOMAL ABERRATIONS, Test System: CHINESE HAMSTER OVARY CELLS, Metabolic Activation: RAT, LIVER, S-9, AROCLOR 1254 active; positive | [3] active; positive
inactive: End Point: IN VITRO CHROMOSOMAL ABERRATIONS, Test System: CHINESE HAMSTER OVARY CELLS, Metabolic Activation: NONE inactive; negative | [8] inactive; negative | Test System: AMES SALMONELLA TYPHIMURIUM, Strain/Indicator: TA98, Metabolic Activation: HAMSTER, LIVER, S-9, AROCLOR 1254 (30%), Method: PREINCUBATION inactive; negative | [9] inactive; negative | [10] inactive; negative | [2] inactive; negative | [11] inactive; negative | [4] inactive; negative | [12] inactive; negative | [6] inactive; negative | [13] inactive; negative | [14] inactive; negative | [15] inactive; negative | [16] inactive; negative | [17] inactive; negative | [18] inactive; negative
